Test results: patent US9169224B2, “Piperazinyl and piperidinyl ureas as modulators of fatty acid amide hydrolase” (Janssen Pharmaceutica NV, priority 2004, dated 2015)
pIC50: −log10 of the molar value.

target: FAAH (Homo sapiens (Human), UniProt O00519); assay: Assay Method 1: FAAH assay, T84 cell homogenate, 3H-anandamide hydrolysis; assay type: biochemical; conditions: 3H-AEA tracer 200 nM, 1 h at rt
Summary of the method: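 Homogenate of human T84 cells in pH 9 Tris/EDTA buffer with 0.02% Triton X-100 was incubated with compound and 200 nM final 3H-anandamide for 1 h at rt. Released [3H]ethanolamine was separated from substrate through activated charcoal by centrifugation and quantified by scintillation counting.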

Sequence of FAAH (O00519 whole entry): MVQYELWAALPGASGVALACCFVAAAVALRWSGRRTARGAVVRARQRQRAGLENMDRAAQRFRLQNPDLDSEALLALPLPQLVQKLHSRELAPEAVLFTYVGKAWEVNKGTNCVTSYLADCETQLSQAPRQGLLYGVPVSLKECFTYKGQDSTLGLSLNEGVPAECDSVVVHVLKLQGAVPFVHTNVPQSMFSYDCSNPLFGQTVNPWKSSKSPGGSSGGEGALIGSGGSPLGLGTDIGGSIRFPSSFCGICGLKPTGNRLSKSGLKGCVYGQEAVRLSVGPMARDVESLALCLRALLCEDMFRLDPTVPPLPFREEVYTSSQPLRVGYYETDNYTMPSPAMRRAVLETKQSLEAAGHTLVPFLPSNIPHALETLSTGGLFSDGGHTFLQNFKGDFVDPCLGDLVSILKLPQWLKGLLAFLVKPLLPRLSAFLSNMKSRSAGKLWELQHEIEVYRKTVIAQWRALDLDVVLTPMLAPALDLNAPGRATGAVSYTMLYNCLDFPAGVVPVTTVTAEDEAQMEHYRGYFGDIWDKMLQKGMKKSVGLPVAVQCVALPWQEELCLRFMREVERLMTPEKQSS

| Structure (SMILES) | pIC50 |
| --- | --- |
| COc1ccccc1NC(=O)N1CCN(Cc2cnc3ccccc3c2)CC1 [Example 102, 4-Quinolin-3-ylmethyl-piperazine-1-carboxylic acid (2-methoxy-phenyl)-amide] | 6.27 |
| Cc1ccccc1NC(=O)N1CCN(Cc2cnc3ccccc3c2)CC1 [Example 103, 4-Quinolin-3-ylmethyl-piperazine-1-carboxylic acid o-tolylamide] | 5.22 |
| Cc1ccc(NC(=O)N2CCN(Cc3cnc4ccccc4c3)CC2)cc1 [Example 104, 4-Quinolin-3-ylmethyl-piperazine-1-carboxylic acid p-tolylamide] | 6.16 |
| COc1ccc(NC(=O)N2CCN(Cc3cnc4ccccc4c3)CC2)cc1 [Example 108, 4-Quinolin-3-ylmethyl-piperazine-1-carboxylic acid (4-methoxy-phenyl)-amide] | 6.57 |
| Cc1cccc(NC(=O)N2CCN(Cc3cnc4ccccc4c3)CC2)c1 [Example 109, 4-Quinolin-3-ylmethyl-piperazine-1-carboxylic acid m-tolylamide] | 6.70 |
| COc1cccc(NC(=O)N2CCN(Cc3cnc4ccccc4c3)CC2)c1 [Example 110, 4-Quinolin-3-ylmethyl-piperazine-1-carboxylic acid (3-methoxy-phenyl)-amide] | 6.70 |
| Cc1ccc(NC(=O)N2CCC(Cc3ccccc3)CC2)cc1 [Example 113, 4-Benzyl-piperidine-1-carboxylic acid p-tolylamide] | 5.10 |
| Cc1cccc(NC(=O)N2CCC(Cc3ccccc3)CC2)c1 [Example 114, 4-Benzyl-piperidine-1-carboxylic acid m-tolylamide] | 5.64 |
| O=C(Nc1ccccc1Cl)N1CCC(Cc2ccccc2)CC1 [Example 115, 4-Benzyl-piperidine-1-carboxylic acid (2-chloro-phenyl)-amide] | 5.40 |
| O=C(Nc1ccncc1)N1CCN(Cc2ccc(Br)c(Br)c2)CC1 [Example 116, 4-(3,4-Dibromo-benzyl)-piperazine-1-carboxylic acid pyridin-4-ylamide] | 6.62 |
| O=C(Nc1ccccn1)N1CCN(Cc2ccc(Br)c(Br)c2)CC1 [Example 117, 4-(3,4-Dibromo-benzyl)-piperazine-1-carboxylic acid pyridin-2-ylamide] | 6.44 |
| O=C(Nc1cccnc1)N1CCN(Cc2ccc(Br)c(Br)c2)CC1 [Example 118, 4-(3,4-Dibromo-benzyl)-piperazine-1-carboxylic acid pyridin-3-ylamide] | 7.57 |
| O=C(Nc1ccccc1)N1CCN(Cc2ccc(OC3CCCCC3)cc2)CC1 [Example 119, 4-(4-Cyclohexyloxy-benzyl)-piperazine-1-carboxylic acid phenylamide] | 6.00 |
| CCCOc1cccc(CN2CCN(C(=O)Nc3ccccc3)CC2)c1 [Example 120, 4-(3-Propoxy-benzyl)-piperazine-1-carboxylic acid phenylamide] | 6.77 |
| CC(C)COc1cccc(CN2CCN(C(=O)Nc3ccccc3)CC2)c1 [Example 121, 4-(3-Isobutoxy-benzyl)-piperazine-1-carboxylic acid phenylamide] | 6.68 |
| CCOc1cccc(CN2CCN(C(=O)Nc3ccccc3)CC2)c1 [Example 122, 4-(3-Ethoxy-benzyl)-piperazine-1-carboxylic acid phenylamide] | 6.66 |
| CCCOc1ccc(CN2CCN(C(=O)Nc3ccccc3)CC2)cc1 [Example 123, 4-(4-Propoxy-benzyl)-piperazine-1-carboxylic acid phenylamide] | 5.82 |
| CC(C)COc1ccc(CN2CCN(C(=O)Nc3ccccc3)CC2)cc1 [Example 124, 4-(4-Isobutoxy-benzyl)-piperazine-1-carboxylic acid phenylamide] | 5.74 |
| CN(C)CCOc1cccc(CN2CCN(C(=O)Nc3ccccc3)CC2)c1 [Example 125, 4-[3-(2-Dimethylamino-ethoxy)-benzyl]-piperazine-1-carboxylic acid phenylamide] | 5.00 |
